Test results published in BindingDB's records for doi:10.1021/acsmedchemlett.8b00333 (University of Calabria, 2019).

Experiment: Inverse agonist activity at GPR55 in human MDA-MB-231 cells assessed as reduction in cell viability incubated for 24 hrs by MTT assay

| Structure (SMILES) | EC50 |
| --- | --- |
| CCCCN(CCCC)C1=C(Cl)C(=O)c2c(O)ccc(O)c2C1=O | > 20 µM |
| O=C1C(Cl)=C(N2CCCC2)C(=O)c2c(O)ccc(O)c21 | > 10 µM |
| COc1ccc(OC)c2c1C(=O)C(Cl)=C(N1CCOCC1)C2=O | > 10 µM |
| CCN(CC)C1=C(Cl)C(=O)c2c(O)ccc(O)c2C1=O | > 20 µM |
| COc1ccc(OC)c2c1C(=O)C(Cl)=C(Cl)C2=O [2,3-Dichloro-5,8-dimethoxy-[1,4]naphthoquinone] | > 20 µM |
| COc1ccc(OC)c2c1C(=O)C(Cl)=C(N1CCCCC1)C2=O | > 10 µM |
| O=C1C(Cl)=C(N2CCCCC2)C(=O)c2c(O)ccc(O)c21 | 1.6 µM |
| O=C1C(Cl)=C(N2CCOCC2)C(=O)c2c(O)ccc(O)c21 | 2.7 µM |
